Consider one compound from patent publication US20250312469A1 (CANGET BIOTEKPHARMA, priority 2024, published 2025).

Structures are written as SMILES. Entries after “also recorded” stand apart in the source; their conditions may differ.

A short description of data set [1]: in vivo. The following applies: SCID, mouse, po.
Data set [2] relates to DU145 xenografts. The data set can be described thus: DU145 xenograft tumor model. The following applies: 8 mg/kg oral, weekly×4.
The target of data set [3] is hERG (Homo sapiens, UniProt Q12809). The data set can be described thus: cell-based. The protocol: All cell suspensions, buffers, and test compound solutions were at room temperature during the experiment. Briefly, Chinese hamster ovary (CHO) cells stably transfected with hERG (cell line obtained from Cytomyx, UK) were seeded in each well of a PatchPlate™ positioned over a small hole at the bottom of each well to form an electrical seal. The resistance of each seal was measured via a common ground electrode in the intracellular compartment and individual electrodes placed into each of the upper wells. Electrical access to the cell was then achieved by circulating a perforating agent, amphotericin B, underneath the PatchPlate™. The hERG channels were activated by applying a depolarizing step to +40 mV for 5 s and then clamped at […] for 4 s to elicit the hERG tail current, before returning to […] for 0.3 s. […] Each concentration was tested in 4 replicate wells on the PatchPlate™.
Chain of hERG (Q12809 whole entry): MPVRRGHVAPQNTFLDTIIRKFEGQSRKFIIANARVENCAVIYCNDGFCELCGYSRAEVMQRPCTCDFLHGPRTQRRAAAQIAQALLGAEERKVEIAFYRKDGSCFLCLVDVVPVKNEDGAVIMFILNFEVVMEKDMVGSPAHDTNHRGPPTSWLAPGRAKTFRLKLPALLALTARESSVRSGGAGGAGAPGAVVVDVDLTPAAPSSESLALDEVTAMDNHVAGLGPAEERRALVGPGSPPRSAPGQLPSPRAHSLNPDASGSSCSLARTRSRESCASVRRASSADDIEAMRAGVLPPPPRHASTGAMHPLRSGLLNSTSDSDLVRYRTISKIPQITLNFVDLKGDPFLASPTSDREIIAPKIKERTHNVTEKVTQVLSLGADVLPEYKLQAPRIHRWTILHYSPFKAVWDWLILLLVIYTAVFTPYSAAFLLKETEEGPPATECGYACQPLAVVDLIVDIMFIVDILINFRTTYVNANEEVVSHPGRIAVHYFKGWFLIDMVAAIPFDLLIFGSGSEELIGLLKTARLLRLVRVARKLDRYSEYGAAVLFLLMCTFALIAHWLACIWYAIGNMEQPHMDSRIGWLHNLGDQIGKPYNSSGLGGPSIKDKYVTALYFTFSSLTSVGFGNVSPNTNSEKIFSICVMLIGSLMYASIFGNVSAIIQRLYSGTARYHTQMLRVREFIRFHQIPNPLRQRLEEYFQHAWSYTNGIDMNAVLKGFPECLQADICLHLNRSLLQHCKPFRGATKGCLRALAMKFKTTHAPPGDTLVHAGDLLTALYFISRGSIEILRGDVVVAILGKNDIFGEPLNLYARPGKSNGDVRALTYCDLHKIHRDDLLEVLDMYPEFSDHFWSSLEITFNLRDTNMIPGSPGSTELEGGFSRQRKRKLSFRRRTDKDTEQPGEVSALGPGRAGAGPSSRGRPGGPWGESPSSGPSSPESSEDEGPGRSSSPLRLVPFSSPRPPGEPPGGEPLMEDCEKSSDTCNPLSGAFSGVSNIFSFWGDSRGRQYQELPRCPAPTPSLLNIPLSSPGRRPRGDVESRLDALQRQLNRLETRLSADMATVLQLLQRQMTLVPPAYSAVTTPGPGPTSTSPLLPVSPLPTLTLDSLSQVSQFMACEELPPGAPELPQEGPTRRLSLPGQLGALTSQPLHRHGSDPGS
All cell suspensions, buffers and test compound solutions were at room temperature during the experiment. (2) The cells used were Chinese hamster ovary (CHO) cells stably transfected with hERG (cell line obtained from Cytomyx, UK). A single cell suspension was prepared in extracellular solution (Dulbecco's phosphate buffered saline with calcium and magnesium pH 7.2) and aliquots added automatically to each well of a PatchPlate™. The cells were then positioned over a small hole at the bottom of each well by applying a vacuum beneath the plate to form an electrical seal. The vacuum was applied through a single compartment common to all wells which was filled with intracellular solution (buffered to pH 7.2 with HEPES). The resistance of each seal was measured via a common ground electrode in the intracellular compartment and individual electrodes placed into each of the upper wells. Electrical access to the cell was then achieved by circulating a perforating agent, amphotericin B, underneath the PatchPlate™. (3) The pre compound hERG current was then measured. […] The hERG channels were then activated by applying a depolarizing step to +40 mV for 5 sec and then clamped at […] for 4 sec to elicit the hERG tail current, before returning to […] for 0.3 sec. […] (5) The IonWorks™ HT instrument automatically added test compound dilutions to the upper wells of the PatchPlate™ from a 96 well microtitre plate. The test compound was left in contact with the cells for 300 sec before recording currents using the same voltage step protocol as in the pre compound scan. […] (6) Each concentration was tested in 4 replicate wells on the PatchPlate™ (maximum of 24 data points).
The percentage inhibition was calculated using the following equation: […]

In data set [4] the target is T1, USP2a (Homo sapiens, UniProt O75604).
T1 sequence (O75604 1-605): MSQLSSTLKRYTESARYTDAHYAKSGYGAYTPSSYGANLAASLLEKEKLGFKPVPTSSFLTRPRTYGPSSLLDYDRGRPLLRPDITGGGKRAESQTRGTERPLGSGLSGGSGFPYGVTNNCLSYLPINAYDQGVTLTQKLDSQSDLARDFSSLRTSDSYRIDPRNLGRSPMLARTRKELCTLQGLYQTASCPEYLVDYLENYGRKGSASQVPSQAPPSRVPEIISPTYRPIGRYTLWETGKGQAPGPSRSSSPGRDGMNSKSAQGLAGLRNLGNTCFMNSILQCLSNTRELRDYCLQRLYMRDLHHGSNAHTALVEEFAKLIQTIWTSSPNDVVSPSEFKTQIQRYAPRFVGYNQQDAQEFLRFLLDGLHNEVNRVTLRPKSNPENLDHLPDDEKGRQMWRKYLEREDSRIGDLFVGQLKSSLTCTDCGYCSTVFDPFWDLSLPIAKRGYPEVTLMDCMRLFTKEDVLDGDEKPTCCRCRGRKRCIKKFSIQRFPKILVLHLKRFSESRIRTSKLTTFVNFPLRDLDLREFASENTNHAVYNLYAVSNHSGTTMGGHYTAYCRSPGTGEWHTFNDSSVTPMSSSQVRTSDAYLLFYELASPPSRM
Put plainly: Cell-based polyUb/MdmX and USP2a mRNA/protein analysis in PCa cells. Set-up: purchased Invitrogen ProtoArray Human Protein Microarray v5.0.

As a reminder, the IC50 is the concentration at which inhibition is half-maximal. Low readings indicate higher potency, high ones lower potency. What is called inhibition is the drop in the measured response relative to a control, in per cent.

Consider `CCC1(O)C(=O)OCc2c1cc1n(c2=O)Cc2cc3cc4c(cc3nc2-1)OCO4` (stereo not drawn) [FL118], for which the MTD at 4 weekly doses in data set [1] is roughly 10 mg/kg. The antitumor efficacy entry in data set [2] is recorded as “well inhibited”. The compound further gave a half-inhibitory concentration (IC50) in data set [3] greater than 1000 nM. Besides, in data set [3] (CHO cells stably transfected with hERG, FL118 3-1000 nM), the “effect on hERG activity” value is recorded as “no inhibitory effects; also recorded: does not exhibit an inhibition of hERG activity”. In data set [3] (human, pH 7.2), the inhibition at 300 s, 0.003 µM is 14.8%; the inhibition at 300 s, 0.01 µM turned out to be 18.7%; the inhibition at 300 s, 0.03 µM is 5.6%; the inhibition at 300 s, 0.1 µM is -5.2%. Also, in data set [3] (human, pH 7.2), the inhibition at 300 s, 0.3 µM was -2.9% and the inhibition at 300 s, 1 µM turned out to be 19.9%. In data set [4], the “USP2a mRNA and protein level” value is on record as “USP2a increases”; the “polyUb-mediated MdmX degradation in cells” value is given as “promotes polyUb-mediated MdmX degradation”.
